Source: patent US6268533A, “Formoterol process” (Sepracor Inc., priority 2000, dated 2001)
Counter-ions that a name gives are not always drawn.

Tests used:
[1] = test system: β2 -selective adrenoceptor; conditions: inhaled; background statement; cited from earlier work
[2] = stability of formoterol salts in the presence of lactose and water; format: physicochemical
Excerpt: Alternatively, if lactose is to be used, as described below, the dry powder must be packaged in such a manner as to exclude moisture.

[3] = moisture sorption of salts, water content by Karl Fischer titration; format: physicochemical; conditions: for water content (moisture sorption): room temperature; for moisture sorption compared with other salts or forms (in words): comparison of salts/polymorphs of R,R-formoterol
Procedure: Water absorption is a major problem in formulating a medicament for therapeutic use, and therefore a salt that has minimal water absorption offers significant advantages. In a series of experiments various salts of R,R-formoterol were prepared.
The salts were exposed to varying levels of humidity at room temperature for 1 to 28 days, and the samples were analyzed for water content by Karl Fischer titration. The values are given in % w/w.

guinea pig trachea = conditions: four isomers compared; cited from earlier work
β-adrenoceptors = conditions: four isomers, in vitro; cited from earlier work
[4] = thermal stability of crystal forms, loss on drying by TGA; format: physicochemical; conditions: for % LOD by TGA: held 15 min
Procedure: (§1) In each experiment, the polymorph was warmed from 30° C. to the designated temperature at 10° C./min and held at the designated temperature for 15 minutes. The loss on drying (LOD) was measured, and the appearance of the material was noted.

[5] = appearance of sample after TGA; format: physicochemical
Procedure: as §1, with “noted. […] The differences in appearance of each crystal form at the designated temperatures were consistent with the changes in LODs.” for “noted.”

[6] = total impurities of crystal forms after heating; format: physicochemical; conditions: for decomposition (total impurities study): 175° C.
Excerpt: The two crystal forms of (R,R)-formoterol tartrate were also studied by measuring the total impurities in the material from each of the experiments in Table 6.

[7] = 85% RH (printed RE for the fumarate)

COc1ccc(C[C@@H](C)NC[C@H](O)c2ccc(O)c(NC=O)c2)cc1 (relative stereo) [Formoterol, (+/-) N-[2-hydroxy-5-[1-hydroxy-2[[2-(p-methoxyphenyl)-2-propyl]amino]ethyl]phenyl]-formamide]
bronchodilating effect [1]: long lasting bronchodilating effect

COc1ccc(C[C@@H](C)NC[C@H](O)c2ccc(O)c(NC=O)c2)cc1 (relative stereo) [racemic (R,R/S,S) formoterol hemifumarate hydrate]
incompatibility with lactose on encountering moisture [2]: not observed

COc1ccc(C[C@@H](C)NC[C@H](O)c2ccc(O)c(NC=O)c2)cc1 [(R,R)-Formoterol-HCl]
water content (moisture sorption) ([3]; 11% relative humidity, day 1): 0.5735 % w/w
water content (moisture sorption) ([3]; 11% relative humidity, day 3): 0.553 % w/w
water content (moisture sorption) ([3]; 11% relative humidity, day 8): 0.3656 % w/w
water content (moisture sorption) ([3]; 11% relative humidity, day 14): 0.4385 % w/w
water content (moisture sorption) ([3]; 11% relative humidity, day 28): 0.2644 % w/w
water content (moisture sorption) ([3]; 43% relative humidity, day 1): 0.8502 % w/w
water content (moisture sorption) ([3]; 43% relative humidity, day 3): 1.1636 % w/w
water content (moisture sorption) ([3]; 43% relative humidity, day 8): 0.8781 % w/w
water content (moisture sorption) ([3]; 43% relative humidity, day 14): 0.9802 % w/w
water content (moisture sorption) ([3]; 43% relative humidity, day 28): 0.8133 % w/w
water absorbed ([3]; 75% RH): 1.3-1.4%
water content (moisture sorption) ([3]; 75% relative humidity, day 1): 1.5335 % w/w
water content (moisture sorption) ([3]; 75% relative humidity, day 3): 1.3288 % w/w
water content (moisture sorption) ([3]; 75% relative humidity, day 8): 1.4931 % w/w
water content (moisture sorption) ([3]; 75% relative humidity, day 14): 1.4585 % w/w
water content (moisture sorption) ([3]; 75% relative humidity, day 28): 1.221 % w/w
water content (moisture sorption) ([3]; 89% relative humidity, day 1): 1.4573 % w/w
water content (moisture sorption) ([3]; 89% relative humidity, day 3): 2.419 % w/w
water content (moisture sorption) ([3]; 89% relative humidity, day 8): 1.6487 % w/w
water content (moisture sorption) ([3]; 89% relative humidity, day 14): 1.5739 % w/w
water content (moisture sorption) ([3]; 89% relative humidity, day 28): 1.1139 % w/w
moisture sorption compared with other salts or forms (in words) ([3]; listed as hydrochloride): somewhat better at 43% RE

COc1ccc(C[C@@H](C)NC[C@H](O)c2ccc(O)c(NC=O)c2)cc1 [(R,R)-Formoterol-SO4]
water content (moisture sorption) ([3]; 11% relative humidity, day 1): 1.2251 % w/w
water content (moisture sorption) ([3]; 11% relative humidity, day 3): 1.3892 % w/w
water content (moisture sorption) ([3]; 11% relative humidity, day 8): 0.9574 % w/w
water content (moisture sorption) ([3]; 11% relative humidity, day 14): 1.209 % w/w
water content (moisture sorption) ([3]; 11% relative humidity, day 28): 0.7866 % w/w
water absorbed ([3]; 43% relative humidity): more than 3 % by weight
water content (moisture sorption) ([3]; 43% relative humidity, day 1): 2.9647 % w/w
water content (moisture sorption) ([3]; 43% relative humidity, day 3): 3.4998 % w/w
water content (moisture sorption) ([3]; 43% relative humidity, day 8): 3.4048 % w/w
water content (moisture sorption) ([3]; 43% relative humidity, day 14): 2.2985 % w/w
water content (moisture sorption) ([3]; 43% relative humidity, day 28): 3.1595 % w/w

COc1ccc(C[C@@H](C)NC[C@H](O)c2ccc(O)c(NC=O)c2)cc1 [(R,R)-isomer]
relaxing activity, rank of potency (guinea pig trachea): most potent
order of potency (β-adrenoceptors): (R,R)>>(R,S)=(S,R)>(S,S)

COc1ccc(C[C@H](C)NC[C@H](O)c2ccc(O)c(NC=O)c2)cc1 [(R,S), reference compound]
order of potency (β-adrenoceptors): (R,R)>>(R,S)=(S,R)>(S,S)

COc1ccc(C[C@@H](C)NC[C@@H](O)c2ccc(O)c(NC=O)c2)cc1 [(S,R), reference compound]
order of potency (β-adrenoceptors): (R,R)>>(R,S)=(S,R)>(S,S)

COc1ccc(C[C@H](C)NC[C@@H](O)c2ccc(O)c(NC=O)c2)cc1 [(S,S)]
order of potency (β-adrenoceptors): (R,R)>>(R,S)=(S,R)>(S,S)

COc1ccc(C[C@@H](C)NC[C@H](O)c2ccc(O)c(NC=O)c2)cc1 [D-tartrate]
water absorbed [3, 7]: 0.4-0.5%
moisture sorption compared with other salts or forms (in words) [3]: somewhat better than the hydrochloride

COc1ccc(C[C@@H](C)NC[C@H](O)c2ccc(O)c(NC=O)c2)cc1 [P1]
water absorbed ([3]; 85% RH for 11 days): less than 0.1%
moisture sorption compared with other salts or forms (in words) [3]: equivalent in moisture sorption
% LOD by TGA ([4]; 75° C.): 0.092%
% LOD by TGA ([4]; 100° C.): 0.065%
% LOD by TGA ([4]; 125° C.): 0.230%
% LOD by TGA ([4]; 150° C.): 0.390%
LOD in words ([4]; 175° C.): significant LODs, the result of decomposition
% LOD by TGA ([4]; 175° C.): 10.805%
appearance of sample after TGA ([5]; 75° C.): white
appearance of sample after TGA ([5]; 100° C.): white
appearance of sample after TGA ([5]; 125° C.): white
appearance of sample after TGA ([5]; 150° C.): off-white
appearance of sample after TGA ([5]; 175° C.): brown
decomposition (total impurities study) [6]: nearly completely decomposed

COc1ccc(C[C@@H](C)NC[C@H](O)c2ccc(O)c(NC=O)c2)cc1 [P2]
water absorbed ([3]; 85% RH for 11 days): less than 0.1%
moisture sorption compared with other salts or forms (in words) [3]: equivalent in moisture sorption
% LOD by TGA ([4]; 75° C.): 0.020%
% LOD by TGA ([4]; 100° C.): 0.045%
% LOD by TGA ([4]; 125° C.): 0.305%
% LOD by TGA ([4]; 150° C.): 1.230%
LOD in words ([4]; 175° C.): significant LODs, the result of decomposition
% LOD by TGA ([4]; 175° C.): 12.990%
appearance of sample after TGA ([5]; 75° C.): white
appearance of sample after TGA ([5]; 100° C.): white
appearance of sample after TGA ([5]; 125° C.): off-white
appearance of sample after TGA ([5]; 150° C.): tan
appearance of sample after TGA ([5]; 175° C.): brown
total impurities compared with P1 ([6]; 100° C. and higher): higher levels of total impurities
decomposition (total impurities study) [6]: nearly completely decomposed

COc1ccc(C[C@@H](C)NC[C@H](O)c2ccc(O)c(NC=O)c2)cc1 [R,R-formoterol L-tartrate]
hygroscopicity [3]: non-hygroscopic
water content (moisture sorption) ([3]; 11% relative humidity, day 1): 0.0956 % w/w
water content (moisture sorption) ([3]; 11% relative humidity, day 3): 0.1062 % w/w
water content (moisture sorption) ([3]; 11% relative humidity, day 8): 0.0842 % w/w
water content (moisture sorption) ([3]; 11% relative humidity, day 14): 0.1377 % w/w
water content (moisture sorption) ([3]; 11% relative humidity, day 28): 0.0871 % w/w
water content (moisture sorption) ([3]; 43% relative humidity, day 1): 0.1091 % w/w
water content (moisture sorption) ([3]; 43% relative humidity, day 3): 0.1406 % w/w
water content (moisture sorption) ([3]; 43% relative humidity, day 8): 0.0922 % w/w
water content (moisture sorption) ([3]; 43% relative humidity, day 14): 0.104 % w/w
water content (moisture sorption) ([3]; 43% relative humidity, day 28): 0.0705 % w/w
water content (moisture sorption) ([3]; 75% relative humidity, day 1): 0.0895 % w/w
water content (moisture sorption) ([3]; 75% relative humidity, day 3): 0.1367 % w/w
water content (moisture sorption) ([3]; 75% relative humidity, day 8): 0.0732 % w/w
water content (moisture sorption) ([3]; 75% relative humidity, day 14): 0.1146 % w/w
water content (moisture sorption) ([3]; 75% relative humidity, day 28): 0.0691 % w/w
water absorbed ([3]; 89% RH): 0.10 to 0.13%
water content (moisture sorption) ([3]; 89% relative humidity, day 1): 0.1144 % w/w
water content (moisture sorption) ([3]; 89% relative humidity, day 3): 0.1379 % w/w
water content (moisture sorption) ([3]; 89% relative humidity, day 8): 0.1104 % w/w
water content (moisture sorption) ([3]; 89% relative humidity, day 14): 0.1097 % w/w
water content (moisture sorption) ([3]; 89% relative humidity, day 28): 0.1122 % w/w
water content (moisture sorption) ([3]; 93% relative humidity, day 1): 0.1346 % w/w
water content (moisture sorption) ([3]; 93% relative humidity, day 3): 0.2077 % w/w
water content (moisture sorption) ([3]; 93% relative humidity, day 8): 0.1076 % w/w
water content (moisture sorption) ([3]; 93% relative humidity, day 14): 0.2972 % w/w
water content (moisture sorption) ([3]; 93% relative humidity, day 28): 0.1765 % w/w
moisture sorption compared with other salts or forms (in words) ([3]; listed as L-tartrate of R,R-formoterol): superior to all of the salts tested

COc1ccc(C[C@@H](C)NC[C@H](O)c2ccc(O)c(NC=O)c2)cc1 [fumarate]
water absorbed [3, 7]: 6%
moisture sorption compared with other salts or forms (in words) [3]: somewhat better at 43% RE
